Reference: patent US6288110A, “Pharmaceutical compositions comprising disulfiram” (Yeda Research and Development Co Ltd., priority 1998, dated 2001)
Read-outs that look alike come from different tables or passages of the source.

Assays:
BSMC = experiment: Cell rounding, BSMC; type: cell-based, bovine; conditions: 5 μM
[1] = test system: metabolism of the carcinogen azomethane; conditions: cited from earlier work
oxidases = conditions: cited from earlier work
[2] = test system: neoplasia of the large bowl; conditions: 1,2-dimethylhydrazine; cited from earlier work
[3] = test system: neovascularization induced by bFGF; experiment: Subcutaneous angiogenesis in nude mice (bFGF agarose bead), disulfiram per os; type: in vivo, CD1 nude male mice
Experimental: FIGS. 1A-1C show inhibition of neovascularization in nude mice by disulfiram (D). […] Bar is one mm.
Spherical agarose beads of approximately 1 mm in diameter were formed from 4% low gelling temperature agarose (Sigma) in PBS containing b-FGF or HB-EGF as angiogenic agent. The candidate angiogenic agent (10 μg/bead) was warmed in sterile microtest tubes to 40° C. in a dry-bath for a few seconds. 10 μl of agarose solution (6% in saline, 45° C.) were then added to 5 μl of the angiogenic compound and beads were formed above ice using a 20 μl pipette tip. Beads were implanted subcutaneously 1 cm away from the incision-site as reported previously for multicellular spheroids (Abramovitch, 1995) in mice anesthetized with a single dose of 75 mg/kg ketamine+3 mg/kg xylazine (i.p.). Experiments were carried out for 4 days in CD1 nude male mice. Each day one ml of aqueous solutions with or without 0.1-0.25 mM (25-60 μg) disulfiram was introduced per os to the mice using a feeding needle. Treatment was for three days starting from the day of bead implantation until one day before termination. Experiments were done in quadruplicates and repeated three times.
Agarose beads containing the angiogenic factor bFGF (10 μg/bead) were implanted subcutaneously into CD1 nude mice as described in section (d) of "Materials and Methods" above. […]

normal mice = conditions: cited from earlier work
[4] = test system: bovine aortic vascular smooth muscle cells (BSMC); experiment: DNA synthesis (3H-thymidine incorporation) in BSMC; type: cell-based
Experimental: Bovine aortic vascular smooth muscle cells (BSMC) were cultured in low glucose DMEM (1 g/liter) supplemented with 10% FCS (HyClone, Logan, Utah) and GPS.
(§1) Bovine capillary endothelial cells (BCE) and bovine aortic BSMC were plated in 24-well plates (6000 cells per well) in 500 μl DMEM medium supplemented with 10% Colorado calf serum (CCS) (GIBCO, USA) and GPS. After 24 hours, medium was changed to starvation medium (2% CCS, 0.5% BSA, GPS) for 24 hours. ^3 H-methyl-thymidine (5 μCi/ml) was added for the last 6 hours. DNA synthesis assays were performed as described above, in triplicates. DNA synthesis assays in BALB/MK keratinocytes were performed as previously described (Marikovsky, 1995).-DNA synthesis assays were performed in triplicates.
Disulfiram was prepared in 0.1 mM stock solutions in DMSO. […] Inhibition was calculated as percentage of DNA synthesis of control.
To determine whether disulfiram acts directly on endothelial cells rather than on accessory cells such as macrophages and mast cells that can be responsible for the development of an angiogenic response in vivo, the effect of the drug on the growth of BCE cells was examined in vitro as described in section (c) of "Materials and Methods" above. DNA synthesis in BCE cells was measured in presence of increasing concentrations of disulfiram incubated for 24 hours with the cells. […]

mammary tumors = conditions: N-2-fluorenylacetamide or N-hydroxy-N-2-fluorenylacetamide, rats; cited from earlier work
BALB/MK keratinocytes = experiment: DNA synthesis (3H-thymidine incorporation) in BALB/MK keratinocytes; type: cell-based, murine; conditions: for IC (maximal): Mus musculus, Keratinocyte
Experimental: The BALB/MK epidermal keratinocyte cell line, kindly provided by Dr. S Aaronson (National Cancer Institute, Bethesda, Md., USA), was cultured (37° C., 10% CO2 humidified atmosphere) in calcium-free MEM (Beth Haemek, Israel) supplemented with 10% dialyzed FCS and murine EGF (5 ng/ml).
as §1
Disulfiram was prepared in 0.1 mM stock solutions in DMSO. Control samples were incubated with the appropriate concentration of DMSO. Inhibition was calculated as percentage of DNA synthesis of control.
To determine whether disulfiram acts directly on endothelial cells rather than on accessory cells such as macrophages and mast cells that can be responsible for the development of an angiogenic response in vivo, the effect of the drug on the growth of BCE cells was examined in vitro as described in section (c) of "Materials and Methods" above. DNA synthesis in BCE cells was measured in presence of increasing concentrations of disulfiram incubated for 24 hours with the cells. […] Maximal inhibitory activity (80%) for BSMC was at 0.5-1 μM disulfiram, while maximal inhibitory activity for C6 glioma cells or BALB/MK keratinocytes was at concentrations 10 fold higher (2-3 μM) than those for endothelial cells (0.2-0.5 μM).
To examine the time course of the effect of disulfiram and whether the effect was reversible, cells were incubated with disulfiram for various periods of time (1, 2, 4 and 24 hours), then washed away and DNA synthesis was determined. One to 4 hours of exposure to disulfiram were enough to induce maximal inhibitory effect at concentrations ranging from 0.5 μM for BCE cells (FIG. 3A) to 5 μM for BALB/MK keratinocytes (FIG. 3C) and C6 glioma cells (FIG. 3D). […] BSMC were less sensitive as far as time course is concerned when incubated with 1 μM disulfiram. Following 4 hours of incubation with 1 μM disulfiram, DNA synthesis inhibition in BSMC reached only 50% (FIG. 3B). The data shown here indicate that the damage for capillary endothelial cells, following a short incubation of 1 to 2 hours, was maximal and that, at least in a time scale of 24 hours, this damage was non-reversible.

rats = conditions: 0.05% in diet for 2 years; cited from earlier work
interleukin-1 = conditions: U.S. Pat. No. 4,870,101; cited from earlier work
endothelial cells = experiment: Cell rounding, capillary endothelial cells; type: cell-based, bovine
Experimental: Capillary endothelial cells were grown during 48 hours to 40-50% confluency and disulfiram was then added to the cells for 20 hours as described in section (g) of "Materials and Methods" above. […] The abundance of apoptotic cells was dose-dependent.

[5] = test system: transmammary carcinogenesis; conditions: 7,12-dimethylbenz(a)anthracene, mice; cited from earlier work

**Q.** With CCN(CC)C(=S)SSC(=S)N(CC)CC [disulfiram, Bis(diethylthiocarbamoyl) disulfide] as the compound, how does the cell rounding (BSMC) read?
**A.** Its cell rounding is “did not change their shape to the rounded form”.

**Q.** What about the “inhibition of azomethane metabolism” value [1] of the same compound?
**A.** The value was “inhibited the metabolism”.

**Q.** What about the inhibition of oxidases (oxidases) of the same compound?
**A.** Its inhibition of oxidases is “inhibit”.

**Q.** What about the “interference with neoplasia of the large bowl” value [2] of the same compound?
**A.** The value was “interfere with induction of cancer”.

**Q.** What about the “inhibition of neovascularization induced by bFGF inside and around the bead” value ([3]; 60 μg/mouse systemically, 4 days after implantation) of the same compound?
**A.** The value was “inhibited almost completely”.

**Q.** And the “angiogenesis around the beads containing bFGF” value ([3]; 25-60 μg/mouse/day per os, 3 days (1 ml of 0.1-0.25 mM))?
**A.** Its value is “clearly inhibited”.

**Q.** And the toxic dose (normal mice)?
**A.** The toxic dose was 6-10 mg/mouse/day.

**Q.** What about the “maximal inhibitory activity (DNA synthesis)” value ([4]; 0.5-1 μM disulfiram) of the same compound?
**A.** The value was 80%.

**Q.** What about the inhibition at 1 µM ([4]; Bos taurus, 1 μM, 4 hours of incubation) of the same compound?
**A.** Its inhibition at 1 µM is 50%.

**Q.** What about the “incidence of mammary tumors” value (mammary tumors) of the same compound?
**A.** The value was “reduce the incidence of mammary tumors”.

**Q.** What about the “maximal inhibitory concentration relative to endothelial cells, fold higher” value (BALB/MK keratinocytes; BALB/MK vs endothelial cells (0.2-0.5 μM)) of the same compound?
**A.** Its value is 10 fold.

**Q.** What about the “persistence of inhibitory effect after short exposure” value (BALB/MK keratinocytes; MK, 24 hours following short exposure) of the same compound?
**A.** The value was “inhibitory effect seemed to be maintained”.

**Q.** And the IC (maximal) (BALB/MK keratinocytes; BALB/MK keratinocytes, read-out: concentration of maximal inhibitory activity (DNA synthesis))?
**A.** Its IC (maximal) is 2 to 3 µM.

**Q.** And the IC (maximal) (BALB/MK keratinocytes; BALB/MK, 1 to 4 hours of exposure, washed, read-out: concentration inducing maximal inhibitory effect on DNA synthesis, short exposure)?
**A.** The IC (maximal) was 5 µM.

**Q.** What about the “increase of any tumor type” value (rats) of the same compound?
**A.** The value was “did not increase any tumor type”.

**Q.** And the “inhibition of interleukin-1 release” value (interleukin-1)?
**A.** The value was “effective to inhibit the release of interleukin-1”.

**Q.** And the cell rounding (endothelial cells)?
**A.** Its cell rounding is “quickly became rounded”.

**Q.** What about the “inhibition of transmammary carcinogenesis” value [5] of the same compound?
**A.** Its value is “inhibit transmammary carcinogenesis”.
